# Settings: for log10 BCF / log10 biotransformation half-life (days): fish
Compound,boiling point,melting point,further results
CC1(C)CCCNC1,137 °C,–,–
Cc1cc(O)ccc1O,272 °C,128 °C,–
Clc1cc2oc3ccc(Cl)c(Cl)c3c2c(Cl)c1Cl,–,–,log10 Koa: 10.5
c1ccsc1,84 °C,-39.4 °C,log10 Henry constant (atm·m³/mol): -2.64; log10 vapour pressure (mmHg): 1.9; ready biodegradability: not readily biodegradable; log10 BCF: 0.95; log10 biotransformation half-life (days): -0.82
CC[N+]1(C)CCCC(OC(=O)C(O)(c2ccccc2)c2ccccc2)C1.[Br-] (stereo not drawn),–,180 °C,–
Clc1ccc(-c2c(Cl)cc(Cl)c(Cl)c2Cl)c(Cl)c1Cl,–,–,log10 Koa: 10.2; log10 vapour pressure (mmHg): -5.85; log10 biotransformation half-life (days): 2.52
O=C1C=CC(=O)c2ccccc21,–,128 °C,ready biodegradability: not readily biodegradable
C=CCOC(=O)CC(C)=O,196 °C,-85 °C,–
CN(C)[C@@H]1C(O)=C(C(N)=O)C(=O)[C@@]2(O)C(O)=C3C(=O)c4c(O)cccc4[C@@](C)(O)[C@H]3C[C@@H]12.Cl,–,222 °C,–
c1ccc(OCCOc2ccccc2)cc1,–,98 °C,–
CC(C)NCC(O)COc1ccc(COCCOC(C)C)cc1 (stereo not drawn),–,100 °C,–
CC(=O)c1ccc(C)s1,232 °C,27.5 °C,–
COOC,14 °C,–,–
c1ccc2[nH]cnc2c1,–,170 °C,–
CCN,16.6 °C,–,log10 Henry constant (atm·m³/mol): -4.91; log10 vapour pressure (mmHg): 3.02; ready biodegradability: readily biodegradable
CCCC(=O)Nc1ccc(OCC(O)CNC(C)C)c(C(C)=O)c1 (stereo not drawn),–,121 °C,–
CC(=O)O[C@@H]1C[C@H](C)CC[C@H]1C(C)C (racemic),228 °C,–,log10 vapour pressure (mmHg): -0.983
O=C(O)c1cc(Cl)cc(Cl)c1Cl,–,166 °C,log10 vapour pressure (mmHg): -3.51
CC(CN(C)C)CN1c2ccccc2Sc2ccccc21 (stereo not drawn),–,68 °C,–
O=C1C=C(N2CC2)C(=O)C(N2CC2)=C1N1CC1,–,163 °C,–
Clc1cc2c(oc3cc(Cl)c(Cl)c(Cl)c32)c(Cl)c1Cl,–,–,log10 Koa: 10.8; log10 BCF: 3.94; log10 biotransformation half-life (days): 1
FC(F)OC(Cl)C(F)(F)F (stereo not drawn),48.5 °C,48.5 °C,log10 Henry constant (atm·m³/mol): -1.54
Fc1ccc2ccccc2c1,212 °C,61 °C,–
CCCCCCCC(=O)O,239 °C,16.3 °C,log10 vapour pressure (mmHg): -2.43; ready biodegradability: readily biodegradable
CCCCCCCCCCC(C)C(=O)O (stereo not drawn),–,22 °C,–

Compound,boiling point,melting point,further results
Cc1cc(=O)n(-c2ccccc2)[nH]1,–,128 °C,–
O=C1c2ccccc2C(=O)c2c1ccc(O)c2O,430 °C,290 °C,log10 vapour pressure (mmHg): -9.06
O=C(O)c1cccc(Oc2ccccc2)c1,–,150 °C,–
CCOCCOC(=O)C=Cc1ccc(OC)cc1,–,-25 °C,–
Cc1cc(N(C)C)ccc1N=Nc1ccccc1,–,68 °C,–
CCCOC(C)C,83 °C,–,–
COc1ccc(CCC(C)=O)cc1,–,8 °C,–
COc1ccc(CN(CCN(C)C)c2ncccn2)cc1.Cl,–,174 °C,–
CC[C@H](C(N)=O)[C@@H](C)CC,–,114 °C,–
CCCO[Si](OCCC)(OCCC)OCCC,226 °C,–,–
Cc1cc(C)nc(NC(=O)NS(=O)(=O)c2ccccc2C(=O)O)n1,–,–,log10 Koc (L/kg): 1.8
O=C1OCc2ccccc21,290 °C,75 °C,log10 vapour pressure (mmHg): -2.7; ready biodegradability: readily biodegradable
C=CC(=O)N(C)C,–,–,ready biodegradability: not readily biodegradable
CCOC(=O)CCCl,162 °C,–,–
N#CCCN,185 °C,–,log10 vapour pressure (mmHg): -0.0655
Nc1cccc2c1C(=O)c1ccccc1C2=O,–,254 °C,log10 vapour pressure (mmHg): -8.3; ready biodegradability: not readily biodegradable; log10 BCF: 1.98; log10 biotransformation half-life (days): -0.59
CN(C(=O)Cl)c1ccccc1,280 °C,88.5 °C,–
C=C(C)C=C(C)C,93.2 °C,-114 °C,–
CCCCOC(=O)C(C)CC (stereo not drawn),179 °C,–,–
CC1CCOC(C)O1 (stereo not drawn),116 °C,–,–
CCCCCCCCCCCCCCCCCCOC(=O)CCc1cc(C(C)(C)C)c(O)c(C(C)(C)C)c1,–,–,ready biodegradability: not readily biodegradable
Cc1ccc2c(Cl)cc(Cl)c(O)c2n1,–,114 °C,–
Cc1cccc2c1ccc1c3ccccc3ccc21,–,256 °C,–
CC(CO)CC(F)(F)F (stereo not drawn),132 °C,–,–
Clc1ccc(-c2cc(Cl)cc(Cl)c2Cl)cc1,–,–,log10 biotransformation half-life (days): 2.43

Compound,boiling point,melting point,further results
CCN(CC)c1ccc(C=NN(c2ccccc2)c2ccccc2)cc1,–,94.5 °C,–
CC(C)(C)c1cc(-n2nc3ccccc3n2)c(O)c(C(C)(C)C)c1,–,–,ready biodegradability: not readily biodegradable; log10 biotransformation half-life (days): 0.89
C[Si](C)(Cl)c1ccccc1,–,–,log10 vapour pressure (mmHg): -0.14
CCC(Br)C(Br)Br (stereo not drawn),216 °C,–,–
[O-][n+]1ccccc1S,–,70.5 °C,–
CCO[Si](Cl)(OCC)OCC,156 °C,-51 °C,–
CCCCCCCC/C=C\CCCCCCCC#N,–,-1 °C,–
CCCCCCCCCCCCO,259 °C,24 °C,log10 Henry constant (atm·m³/mol): -4.65; log10 Koc (L/kg): 3.52; log10 vapour pressure (mmHg): -3.07; ready biodegradability: readily biodegradable
CCOP(=O)(Sc1ccccc1)Sc1ccccc1,–,–,log10 vapour pressure (mmHg): -6.57; log10 BCF: 1.51; log10 biotransformation half-life (days): -1.04
C#CC(OC(=O)C1C(C=C(C)C)C1(C)C)/C(C)=C/CC (stereo not drawn),296 °C,–,log10 vapour pressure (mmHg): -3.98
CC(=O)Oc1ccccc1C(=O)OC(=O)c1ccccc1OC(C)=O,–,83 °C,–
C[C@]12CC[C@H](O)CC1=CC[C@@H]1[C@@H]2CC[C@@]2(C)[C@H]1CC[C@]2(C)O,–,206 °C,–
C/C=C\CC(C)(C)C,107 °C,–,–
CCOC(=O)C1CCCC1=O (stereo not drawn),221 °C,–,–
Clc1ccc2cc(Cl)c(Cl)c(Cl)c2c1,–,–,log10 Koa: 8.35
CCCCOCCOCCCC,203 °C,-69.1 °C,log10 vapour pressure (mmHg): -1.05
CC(C)NCC(O)COc1cccc2c1C=CC2 (stereo not drawn),–,88.5 °C,–
O=c1[nH]sc2ccccc12,–,–,ready biodegradability: not readily biodegradable
COS(=O)(=O)[O-].C[N+]1(C)CCN(CC(O)(c2ccccc2)C2CCCCC2)CC1 (stereo not drawn),–,205 °C,–
Cc1ncc([N+](=O)[O-])n1CC(C)O (stereo not drawn),–,76 °C,–
CC(C)Sc1ccccc1,208 °C,–,–
N#Cc1nn(-c2c(Cl)cc(C(F)(F)F)cc2Cl)c(N)c1S(=O)C(F)(F)F (stereo not drawn),–,200 °C,log10 vapour pressure (mmHg): -8.56; log10 biotransformation half-life (days): -0.21
O=C=Nc1cccc2c(N=C=O)cccc12,330 °C,130 °C,log10 vapour pressure (mmHg): -4.47
c1ccc(Nc2ccc(-c3ccc(Nc4ccccc4)cc3)cc2)cc1,–,247 °C,–
O=S(=O)(Cl)c1ccc(I)cc1,–,85 °C,–

Compound,boiling point,melting point,further results
O=C(O)C1CSCN1 (stereo not drawn),–,196 °C,–
O=[N+]([O-])c1ccc(Cl)c(Cl)c1Cl,–,55.5 °C,log10 BCF: 2.2; log10 biotransformation half-life (days): -0.19
CC(O)(c1ccc(Cl)cc1)c1ccc(Cl)cc1,–,70 °C,–
Brc1ccc(Br)c(Br)c1,275 °C,44.5 °C,log10 BCF: 3.63
N#Cc1ccccc1-c1ccccc1,–,41 °C,–
Cc1nnc(-c2ccccc2)c(=O)n1N,–,–,log10 Koc (L/kg): 2.17; log10 vapour pressure (mmHg): -8.19
C[C@]12CC[C@@H]3c4ccc(O)cc4CC[C@H]3[C@@H]1CCC2=O,–,260 °C,–
CCC(=O)O[C@]1(C(=O)CCl)[C@@H](C)C[C@H]2[C@@H]3CCC4=CC(=O)C=C[C@]4(C)[C@@]3(F)[C@@H](O)C[C@@]21C,–,196 °C,–
CCCc1nccnc1C,189 °C,–,–
CCC(C(=O)NC(N)=O)c1ccccc1 (stereo not drawn),–,162 °C,–
O=C(O)C(F)(F)C(F)(F)C(F)(F)C(F)(F)C(F)(F)C(F)(F)C(F)(F)C(F)(F)C(F)(F)C(F)(F)C(F)(F)F,249 °C,108 °C,ready biodegradability: not readily biodegradable
O=C(CCc1ccc(O)cc1)c1c(O)cc(O)cc1O[C@@H]1O[C@H](CO)[C@@H](O)[C@H](O)[C@H]1O,–,110 °C,–
CN1C(=O)CC[C@H]1c1cccnc1,–,41 °C,–
C[Si](C)(F)c1ccccc1,–,–,log10 vapour pressure (mmHg): 0.463
O=Cc1cccc(O)c1O,235 °C,108 °C,–
COc1ccc(C)cc1C,192 °C,–,–
O=C(O)/C=C/Cl,–,82 °C,–
CC1COCc2cc3c(cc21)C(C)(C)C(C)C3(C)C (stereo not drawn),325 °C,-5 °C,log10 vapour pressure (mmHg): -3.26
CCC(=O)CC,102 °C,-39 °C,log10 Henry constant (atm·m³/mol): -4.3; log10 Koa: 3.2; log10 vapour pressure (mmHg): 1.58; ready biodegradability: readily biodegradable
C=CC(F)(F)Br,42 °C,–,–
O=C(O)COc1ccc(F)cc1,–,104 °C,–
COC(=O)c1ccc(O)cc1,–,131 °C,log10 Koa: 8.57
COC(=O)c1cc(Cl)ccc1O,–,50 °C,–
CCCCCCCCCCCCCCCCCCCC,343 °C,36.8 °C,log10 biodegradation half-life (days): 1.4; log10 vapour pressure (mmHg): -5.34; ready biodegradability: readily biodegradable
O=C[O-].[NH4+],–,116 °C,–

Compound,boiling point,melting point,further results
CCOC(=O)N1CCN(C(=O)OCC)CC1,315 °C,47 °C,–
C=C(C)OC(C)=O,97 °C,-92.9 °C,–
O=[N+]([O-])c1ccc(Cl)cc1C(F)(F)F,–,–,ready biodegradability: not readily biodegradable; log10 BCF: 1.87; log10 biotransformation half-life (days): -0.36
COP(=S)(OC)SCC(=O)N(C)C=O,–,25.5 °C,log10 vapour pressure (mmHg): -6.07
CCCCCCCCCCCCCCCC(=O)NCCO,–,98.5 °C,–
CC=C(C)C=CC=C(C)C,–,-28 °C,–
CCCOC(=O)c1ccoc1,211 °C,–,–
CCC(C)(C)Br,108 °C,–,–
O=[N+]([O-])C(Br)(CO)CO,–,132 °C,ready biodegradability: not readily biodegradable
c1ccc(CSc2ccccc2)cc1,–,43.5 °C,–
C1CC2CCCC2C1 (stereo not drawn),139 °C,–,–
C=CC(=O)OCC(CC)(COC(=O)C=C)COC(=O)C=C,–,–,ready biodegradability: not readily biodegradable
NC(=O)Cc1cccc2ccccc12,–,184 °C,log10 Koc (L/kg): 2
Cc1cccc(N=Nc2ccc(N(C)C)cc2)c1,–,138 °C,–
O=[N+]([O-])CCO,194 °C,-80 °C,–
O=C(O)C(O)C(Cl)(Cl)Cl (stereo not drawn),–,125 °C,–
CC(=O)NC(N)=O,–,218 °C,–
CCCCc1ccc(C(=O)O)nc1,–,97 °C,–
CCCC(C)(C)C(C)C,138 °C,-117 °C,log10 vapour pressure (mmHg): 0.993
Clc1ccc(-c2ccccc2Cl)cc1,–,–,log10 Henry constant (atm·m³/mol): -3.64; log10 Koa: 7.4; log10 Koc (L/kg): 4.34; log10 vapour pressure (mmHg): -2.68
CCC(=O)C1CCCCC1,196 °C,–,–
O=C(SSC(=O)c1ccccc1)c1ccccc1,–,134 °C,–

# Source: the OPERA property sets (Mansouri et al. 2018)
